The record followed here is publication PMC8496750, “Identification of the organic anion transporting polypeptides responsible for the hepatic uptake of the major metabolite of epyrifenacil, S‐3100‐CA, in mice” (Pharmacology Research & Perspectives, 2021).

Where two headings read alike, the source gives them in different places.

The data set in a line: Metabolite analysis in plasma, liver, and kidney (TLC). It counts as in vivo, Crl:CD1(ICR) mice. Conditions: Crl:CD1(ICR), mouse. From the text:
Precoated silica gel 60 F254 chromatoplate (20 × 20 cm, 0.25‐ or 0.5‐mm layer thickness, Merck KGaA) was used for two‐dimensional thin layer chromatography (2D‐TLC) analysis. The solvent systems were ethyl formate/formic acid (95/5, v/v) for the first dimension, and ethyl acetate/acetic acid (95/5, v/v) for the second dimension. The radioactivity on the TLC plates was detected by autoradiography using an imaging plate processed with a fluoro‐image analyzer (FLA‐9500, GE Healthcare). The identity of the metabolites was confirmed by co‐chromatography in comparison with authentic metabolite standards.
Three mice per sex at 8 weeks old were given a single oral dose of [^14C]epyrifenacil at 1 mg/kg with or without co‐administration of OATP inhibitors. […] At 2 h after administration of [^14C]epyifenacil, the animals were euthanized by whole blood collection from the abdominal aorta under anesthesia with isoflurane. The sampling time point was selected as the time around T max based on the result of the blood ^14C‐concentration study. Then, the liver and kidney were dissected out, and the amount of ^14C was measured. Aliquots of heparinized blood samples were separated into blood cells and plasma by centrifugation at 2000g for 10 min at 4°C. The total weight of the liver and kidney was determined for each animal. Two aliquots of plasma and tissue samples (approximately 0.05–0.1 g) were weighed in a glass vial, and the radioactivity was measured.
Approximately 0.3 g of liver, kidney, and plasma samples were pooled, respectively, for each dose and gender to obtain samples for analysis. Pooled liver, kidney, and plasma (ca. 1 g each) samples were homogenized with an approximately 3‐fold volume (v/w) of methanol using the mixer mill MM400 (5 min, 25 cycles/second, Retsch GmbH) and centrifuged (10 000g, 5 min, 4°C) to separate the supernatants from the residues. The extraction was repeated one additional time. The supernatants obtained were pooled and labeled liver, kidney, and plasma extracts. These samples were concentrated and then subjected to TLC analysis. For calculation of extraction efficacy, the post‐extraction solids (PESs) from the tissues and plasma extracts were sampled in low potassium glass vials. PESs were solubilized with 3 M potassium hydroxide solution (approximately 1 ml), then bleached with 30% hydrogen peroxide solution, and finally mixed with 10 ml of Hionic‐Fluor to measure the radioactivity.

[1] abbreviates: kidney, oral, with rifampicin (OATP inhibitor) 200 mg/kg p.o., Male, 2 h after [^14C]Epyrifenacil 1 mg/kg p.o. + Rifampicin 200 mg/kg p.o., read-out: Metabolite concentration, Kidney.
Setting [2] is: kidney, oral, Female, 2 h after [^14C]Epyrifenacil 1 mg/kg p.o., read-out: Metabolite concentration, Kidney.
Where [3] appears, read: kidney, oral, Male, 2 h after [^14C]Epyrifenacil 1 mg/kg p.o., read-out: Metabolite concentration, Kidney.
The mark [4] stands for this setting: liver, oral, Female, 2 h after [^14C]Epyrifenacil 1 mg/kg p.o., read-out: Metabolite concentration, Liver.
Where [5] appears, read: liver, oral, Male, 2 h after [^14C]Epyrifenacil 1 mg/kg p.o., read-out: Metabolite concentration, Liver.
[6] abbreviates: plasma, oral, Female, 2 h after [^14C]Epyrifenacil 1 mg/kg p.o., read-out: Metabolite concentration, Plasma.
[7] abbreviates: plasma, oral, Male, 2 h after [^14C]Epyrifenacil 1 mg/kg p.o., pooled samples, read-out: Metabolite concentration, Plasma.

On to `CNC(=O)Nc1cc(Oc2cccnc2OCC(=O)O)c(Cl)cc1F` [M2], for which the concentration at 2 h runs as follows: under setting [1], 1 ng/g; under setting [2], 2 ng/g; under setting [3], 4 ng/g; under setting [4], 11 ng/g; under setting [5], 24 ng/g; (plasma, oral, with rifampicin (OATP inhibitor) 200 mg/kg p.o., Female, 2 h after [^14C]Epyrifenacil 1 mg/kg p.o. + Rifampicin 200 mg/kg p.o., read-out: Metabolite concentration, Plasma) 16 ng/g. Moreover, the concentration at 2 h by setting is: (plasma, oral, with rifampicin (OATP inhibitor) 200 mg/kg p.o., Male, 2 h after [^14C]Epyrifenacil 1 mg/kg p.o. + Rifampicin 200 mg/kg p.o., read-out: Metabolite concentration, Plasma) 35 ng/g; under setting [6], 55 ng/g; under setting [7], 20 ng/g.

For `CN1C(=O)N(c2cc(Oc3cccnc3OCC(=O)O)c(Cl)cc2F)C(=O)CC1(O)C(F)(F)F` (centres unmarked) [M4], the concentration at 2 h (female, in vivo, 1 mg/kg, Female, 2 h after [^14C]Epyrifenacil 1 mg/kg p.o., read-out: Metabolite concentration, Kidney) turned out to be 23 ng/g; the concentration at 2 h (female, in vivo, 1 mg/kg, Female, 2 h after [^14C]Epyrifenacil 1 mg/kg p.o., read-out: Metabolite concentration, Liver) was determined as 858 ng/g; the concentration at 2 h (female, in vivo, Female, 2 h after [^14C]Epyrifenacil 1 mg/kg p.o. + Digoxin 100 mg/kg i.p., read-out: Metabolite concentration, Kidney) was determined as 30 ng/g; the concentration at 2 h (female, in vivo, Female, 2 h after [^14C]Epyrifenacil 1 mg/kg p.o. + Digoxin 100 mg/kg i.p., read-out: Metabolite concentration, Liver) amounted to 553 ng/g; the concentration at 2 h (female, in vivo, Female, 2 h after [^14C]Epyrifenacil 1 mg/kg p.o. + Digoxin 200 mg/kg p.o., read-out: Metabolite concentration, Kidney) was 7 ng/g; the concentration at 2 h (female, in vivo, Female, 2 h after [^14C]Epyrifenacil 1 mg/kg p.o. + Digoxin 200 mg/kg p.o., read-out: Metabolite concentration, Liver) turned out to be 291 ng/g. Further, the concentration at 2 h reads like this: (female, in vivo, Female, 2 h after [^14C]Epyrifenacil 1 mg/kg p.o. + Rifampicin 200 mg/kg p.o., read-out: Metabolite concentration, Kidney) 15 ng/g; (female, in vivo, Female, 2 h after [^14C]Epyrifenacil 1 mg/kg p.o. + Rifampicin 200 mg/kg p.o., read-out: Metabolite concentration, Liver) 129 ng/g; (female, in vivo, Female, 2 h after [^14C]Epyrifenacil 1 mg/kg p.o. + Rifampicin 200 mg/kg p.o., read-out: Metabolite concentration, Plasma) 22 ng/g; (male, in vivo, 1 mg/kg, Male, 2 h after [^14C]Epyrifenacil 1 mg/kg p.o., pooled samples, read-out: Metabolite concentration, Plasma) 3 ng/g; (male, in vivo, 1 mg/kg, Male, 2 h after [^14C]Epyrifenacil 1 mg/kg p.o., read-out: Metabolite concentration, Kidney) 9 ng/g; (male, in vivo, 1 mg/kg, Male, 2 h after [^14C]Epyrifenacil 1 mg/kg p.o., read-out: Metabolite concentration, Liver) 1030 ng/g. The concentration at 2 h runs as follows: (male, in vivo, Male, 2 h after [^14C]Epyrifenacil 1 mg/kg p.o. + Digoxin 100 mg/kg i.p., read-out: Metabolite concentration, Kidney) 14 ng/g; (male, in vivo, Male, 2 h after [^14C]Epyrifenacil 1 mg/kg p.o. + Digoxin 100 mg/kg i.p., read-out: Metabolite concentration, Liver) 651 ng/g; (male, in vivo, Male, 2 h after [^14C]Epyrifenacil 1 mg/kg p.o. + Digoxin 200 mg/kg p.o., read-out: Metabolite concentration, Kidney) 5 ng/g; (male, in vivo, Male, 2 h after [^14C]Epyrifenacil 1 mg/kg p.o. + Digoxin 200 mg/kg p.o., read-out: Metabolite concentration, Liver) 157 ng/g; (male, in vivo, Male, 2 h after [^14C]Epyrifenacil 1 mg/kg p.o. + Rifampicin 200 mg/kg p.o., read-out: Metabolite concentration, Kidney) 22 ng/g; (male, in vivo, Male, 2 h after [^14C]Epyrifenacil 1 mg/kg p.o. + Rifampicin 200 mg/kg p.o., read-out: Metabolite concentration, Liver) 172 ng/g. Where the note is “male, in vivo, Male, 2 h after [^14C]Epyrifenacil 1 mg/kg p.o. + Rifampicin 200 mg/kg p.o., read-out: Metabolite concentration, Plasma”, the concentration at 2 h is 4 ng/g.

On to `Cn1c(C(F)(F)F)cc(=O)n(-c2cc(Oc3ccc[nH]c3=O)c(Cl)cc2F)c1=O` [M6], for which the concentration at 2 h by setting is: under setting [1], 1 ng/g; under setting [2], 4 ng/g; under setting [3], 8 ng/g; under setting [4], 6 ng/g; under setting [5], 12 ng/g; under setting [6], 15 ng/g. Moreover, the concentration at 2 h under setting [7] worked out at 3 ng/g.
